# Where “and” joins values, the source holds several entries; their conditions need not be identical. Equal values may be shown once. Toxic doses and inconclusive results are not listed.
# Test system: L1210 leukemia ip in BDF1 mice, survival T/C
# Test: NCI In Vivo Anticancer Drug Screen. Data for tumor model L1210 Leukemia (intraperitoneal) in B6D2F1 (BDF1) mice
# Details: endpoint: mean survival time, higher = longer survival
# Method in brief: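 Survival endpoint. Drug-treated group vs vehicle group, expressed as T divided by C. Tumor passaged by transplantation.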
# [1] = dose: 100.0 mg/kg/injection, schedule: Q04DX003 (ip), vehicle: saline with Tween-80
# [2] = dose: 200.0 mg/kg/injection, schedule: Q04DX003 (ip), vehicle: saline with Tween-80
# [3] = dose: 50.0 mg/kg/injection, schedule: Q04DX003 (ip), vehicle: Klucel (hydroxypropylcellulose) (HPC)
# [4] = dose: 100.0 mg/kg/injection, schedule: Q04DX003 (ip), vehicle: Klucel (hydroxypropylcellulose) (HPC)
# [5] = dose: 200.0 mg/kg/injection, schedule: Q04DX003 (ip), vehicle: Klucel (hydroxypropylcellulose) (HPC)
# [6] = dose: 50.0 mg/kg/injection, schedule: Q01DX009 (ip), vehicle: saline with Tween-80
# [7] = dose: 100.0 mg/kg/injection, schedule: Q01DX009 (ip), vehicle: saline with Tween-80
# [8] = dose: 200.0 mg/kg/injection, schedule: Q01DX009 (ip), vehicle: saline with Tween-80
# [9] = dose: 100.0 mg/kg/injection, schedule: Q01DX001 (ip), vehicle: saline
# [10] = dose: 200.0 mg/kg/injection, schedule: Q01DX001 (ip), vehicle: saline
# [11] = dose: 400.0 mg/kg/injection, schedule: Q01DX001 (ip), vehicle: saline
# [12] = dose: 100.0 mg/kg/injection, schedule: Q04DX003 (ip), vehicle: saline
# [13] = dose: 400.0 mg/kg/injection, schedule: Q04DX003 (ip), vehicle: Klucel (hydroxypropylcellulose) (HPC)
# [14] = dose: 25.0 mg/kg/injection, schedule: Q01DX009 (ip), vehicle: saline with Tween-80
# [15] = dose: 100.0 mg/kg/injection, schedule: Q01DX001 (ip), vehicle: saline with Tween-80
# [16] = dose: 200.0 mg/kg/injection, schedule: Q01DX001 (ip), vehicle: saline with Tween-80
# [17] = dose: 400.0 mg/kg/injection, schedule: Q01DX001 (ip), vehicle: saline with Tween-80
smiles,measurement,setting,value
O=NN(CC(F)(F)F)C(=O)NCC(F)(F)F,T/C,"dose: 8.0 mg/kg/injection, schedule: Q01DX001 (ip), vehicle: carboxymethylcellulose (CMC)",113 % of control
same,T/C,"dose: 16.0 mg/kg/injection, schedule: Q01DX001 (ip), vehicle: carboxymethylcellulose (CMC)",113 % of control
same,T/C,"dose: 31.0 mg/kg/injection, schedule: Q01DX001 (ip), vehicle: carboxymethylcellulose (CMC)",113 % of control
same,T/C,"dose: 62.0 mg/kg/injection, schedule: Q01DX001 (ip), vehicle: carboxymethylcellulose (CMC)",113 % of control
same,T/C,"dose: 125.0 mg/kg/injection, schedule: Q01DX001 (ip), vehicle: carboxymethylcellulose (CMC)",113 % of control
same,T/C,"dose: 187.0 mg/kg/injection, schedule: Q01DX001 (ip), vehicle: carboxymethylcellulose (CMC)",112 % of control
same,T/C,"dose: 250.0 mg/kg/injection, schedule: Q01DX001 (ip), vehicle: carboxymethylcellulose (CMC)",107 % of control
same,T/C,"dose: 375.0 mg/kg/injection, schedule: Q01DX001 (ip), vehicle: carboxymethylcellulose (CMC)",113 % of control
same,T/C,"dose: 500.0 mg/kg/injection, schedule: Q01DX001 (ip), vehicle: carboxymethylcellulose (CMC)",118 % of control
Cc1ccc(S(=O)(=O)NN)cc1,T/C,[1],97 % of control
same,T/C,[2],101 % of control
same,T/C,"dose: 400.0 mg/kg/injection, schedule: Q04DX003 (ip), vehicle: saline with Tween-80",88 % of control
CCCCn1c(Cl)c(C(=O)O)c2ccccc21,T/C,[3],94 % of control
same,T/C,[4],91 % of control
same,T/C,[5],90 % of control
OCCOc1c(Cl)c(Cl)c(Cl)c(Cl)c1Cl,T/C,[6],101 % of control
same,T/C,[7],94 % of control
same,T/C,[1],102 % of control
same,T/C,[8],103 % of control
same,T/C,[2],97 % of control
CCOC(=O)C1=NN(c2ccccc2)C(=O)C1N=Nc1c(Br)cc(S(N)(=O)=O)cc1Br (centres undefined),T/C,[9],96 % of control
same,T/C,[10],101 % of control
same,T/C,[11],98 % of control
O=C(CSc1ncc2ccccn12)c1ccccc1,T/C,"dose: 100.0 mg/kg/injection, schedule: Q04DX002 (ip), vehicle: saline with Tween-80",106 % of control
same,T/C,"dose: 200.0 mg/kg/injection, schedule: Q04DX002 (ip), vehicle: saline with Tween-80",92 % of control
same,T/C,"dose: 400.0 mg/kg/injection, schedule: Q04DX002 (ip), vehicle: saline with Tween-80",95 % of control
CCCOC(=O)c1ccc(NCC(C)(C)[N+](=O)[O-])cc1,T/C,"dose: 100.0 mg/kg/injection, schedule: Q01DX009 (ip), vehicle: saline",95 % of control
same,T/C,"dose: 200.0 mg/kg/injection, schedule: Q01DX009 (ip), vehicle: saline",117 % of control
same,T/C,"dose: 400.0 mg/kg/injection, schedule: Q01DX009 (ip), vehicle: saline",91 % of control
O=C(NNc1ccccc1)c1ccccc1,T/C,"dose: 50.0 mg/kg/injection, schedule: Q01DX009 (ip), vehicle: Klucel (hydroxypropylcellulose) (HPC)",101 % of control
same,T/C,"dose: 100.0 mg/kg/injection, schedule: Q01DX009 (ip), vehicle: Klucel (hydroxypropylcellulose) (HPC)",101 % of control
same,T/C,[4],94 % of control
same,T/C,[12],100 % of control
same,T/C,"dose: 200.0 mg/kg/injection, schedule: Q01DX009 (ip), vehicle: Klucel (hydroxypropylcellulose) (HPC)",110 % of control
same,T/C,[5],107 % of control
same,T/C,"dose: 200.0 mg/kg/injection, schedule: Q04DX003 (ip), vehicle: saline",103 % of control
same,T/C,[13],100 % of control
same,T/C,"dose: 400.0 mg/kg/injection, schedule: Q04DX003 (ip), vehicle: saline",93 % of control
CCCC(C)(CO)COC(N)=O (centres undefined),T/C,[9],105 % of control
same,T/C,[10],103 % of control
same,T/C,[11],111 % of control
N#CSCCC(c1ccccc1)(c1ccccc1)c1ccccc1,T/C,[6],90 % of control
same,T/C,[7],90 % of control
same,T/C,[8],90 % of control
COc1cc(N(CCCl)CCCl)ccc1C=Nc1ccccc1C(=O)O,T/C,"dose: 2.3 mg/kg/injection, schedule: Q01DX015 (ip), vehicle: carboxymethylcellulose (CMC)",117 % of control
same,T/C,"dose: 5.0 mg/kg/injection, schedule: Q01DX001 (ip), vehicle: carboxymethylcellulose (CMC)",121 % of control
same,T/C,"dose: 5.3 mg/kg/injection, schedule: Q01DX015 (ip), vehicle: carboxymethylcellulose (CMC)",122 % of control
same,T/C,"dose: 10.0 mg/kg/injection, schedule: Q01DX015 (ip), vehicle: carboxymethylcellulose (CMC)",154 % of control
same,T/C,"dose: 15.0 mg/kg/injection, schedule: Q01DX015 (ip), vehicle: carboxymethylcellulose (CMC)",119 % of control
same,T/C,"dose: 16.0 mg/kg/injection, schedule: Q01DX015 (ip), vehicle: carboxymethylcellulose (CMC)",123 % of control
same,T/C,"dose: 20.0 mg/kg/injection, schedule: Q01DX001 (ip), vehicle: carboxymethylcellulose (CMC)",162 % of control
same,T/C,"dose: 22.0 mg/kg/injection, schedule: Q01DX001 (ip), vehicle: carboxymethylcellulose (CMC)",150 % of control
same,T/C,"dose: 33.0 mg/kg/injection, schedule: Q01DX001 (ip), vehicle: carboxymethylcellulose (CMC)",164 % of control
same,T/C,"dose: 50.0 mg/kg/injection, schedule: Q01DX001 (ip), vehicle: carboxymethylcellulose (CMC)",100 % of control
O=C1c2c(cccc2NCCO)Cc2cccc(NCCO)c21,T/C,"dose: 100.0 mg/kg/injection, schedule: Q01DX001 (ip), vehicle: Klucel (hydroxypropylcellulose) (HPC)",102 % of control
same,T/C,[4],98 % of control
same,T/C,"dose: 200.0 mg/kg/injection, schedule: Q01DX001 (ip), vehicle: Klucel (hydroxypropylcellulose) (HPC)",104 % of control
same,T/C,[5],93 % of control
same,T/C,"dose: 400.0 mg/kg/injection, schedule: Q01DX001 (ip), vehicle: Klucel (hydroxypropylcellulose) (HPC)",96 % of control
same,T/C,[13],96 % of control
Nc1cccc(C(=O)O)c1C(=O)O,T/C,"dose: 6.25 mg/kg/injection, schedule: Q01DX009 (ip), vehicle: saline with Tween-80",100 % of control
same,T/C,"dose: 12.5 mg/kg/injection, schedule: Q01DX009 (ip), vehicle: saline with Tween-80",96 % of control
same,T/C,[14],91 % of control
same,T/C,"dose: 75.0 mg/kg/injection, schedule: Q01DX001 (ip), vehicle: carboxymethylcellulose (CMC)",91 % of control
same,T/C,[4],100 % of control
same,T/C,"dose: 150.0 mg/kg/injection, schedule: Q01DX001 (ip), vehicle: carboxymethylcellulose (CMC)",94 % of control
same,T/C,[5],91 % of control
N#Cc1cncc(-c2ccccc2)c1,T/C,"dose: 25.0 mg/kg/injection, schedule: Q04DX003 (ip), vehicle: Klucel (hydroxypropylcellulose) (HPC)",95 % of control
same,T/C,[3],95 % of control
same,T/C,[4],89 % of control
COc1ccc(SC(=O)Nc2cc([N+](=O)[O-])ccc2Cl)cc1,T/C,[14],89 % of control
same,T/C,[6],89 % of control
CC(CN1CCCC1)C(O)(Cc1ccccc1)c1ccccc1 (centres undefined),T/C,"dose: 25.0 mg/kg/injection, schedule: Q01DX009 (ip), vehicle: saline",95 % of control
same,T/C,"dose: 50.0 mg/kg/injection, schedule: Q01DX009 (ip), vehicle: saline",95 % of control
same,T/C,[12],92 % of control
Cc1nc(N)[nH]c(=O)c1CCCNc1ccc(/C=C/C(=O)CCl)cc1,T/C,"dose: 50.0 mg/kg/injection, schedule: Q01DX Z (ip), vehicle: carboxymethylcellulose (CMC)",90 % of control
same,T/C,"dose: 100.0 mg/kg/injection, schedule: Q01DX Z (ip), vehicle: carboxymethylcellulose (CMC)",86 % of control
same,T/C,"dose: 200.0 mg/kg/injection, schedule: Q01DX Z (ip), vehicle: carboxymethylcellulose (CMC)",90 % of control
same,T/C,"dose: 400.0 mg/kg/injection, schedule: Q01DX Z (ip), vehicle: carboxymethylcellulose (CMC)",90 % of control
CCN(CC)CCNC(=O)c1c2c(nc3ccccc13)CCCC2,T/C,[9],103 % of control
same,T/C,[10],102 % of control
same,T/C,[11],98 % of control
O=C(COc1ccc(Cl)cc1)Nc1ccc(Cl)cc1C(=O)c1ccccc1,T/C,"dose: 50.0 mg/kg/injection, schedule: Q01DX009 (ip), vehicle: other",106 % of control
same,T/C,"dose: 100.0 mg/kg/injection, schedule: Q01DX009 (ip), vehicle: other",102 % of control
same,T/C,"dose: 200.0 mg/kg/injection, schedule: Q01DX009 (ip), vehicle: other",96 % of control and 87 % of control
same,T/C,"dose: 400.0 mg/kg/injection, schedule: Q01DX009 (ip), vehicle: other",89 % of control
O=C1COC(C(Cl)(Cl)Cl)CN1 (centres undefined),T/C,[15],108 % of control
same,T/C,[16],105 % of control
same,T/C,[17],103 % of control
COC(=O)COc1ccc(Cl)cc1C(=O)O,T/C,[1],94 % of control
same,T/C,[2],92 % of control
CC(=O)Oc1c2ccsc2cc2sccc12,T/C,[15],96 % of control
same,T/C,[16],94 % of control
same,T/C,[17],94 % of control
